Test results as given in US5281626A, “Benzenesulfonamide derivatives” (Eisai Co., Ltd., priority 1990, dated 1994).

How the values were obtained:
[1] = system: phospholipase A2 (PLA2) contained in the membrane fraction of rabbit heart; assay: Inhibitory activity against phospholipase A2 (PLA2) contained in the membrane fraction of rabbit heart; format: biochemical; details: CaCl2 added, 37° C., 30 minutes
Procedure: (§1) A. Inhibitory activity against phospholipase A2 (PLA2) contained in the membrane fraction of rabbit heart or the supernatant fraction thereof (method) An NZW male rabbit was anesthetized by the intravenous administration of pentobarbital sodium to take out its heart. This heart was washed with ice cooled physiological saline to recover a ventricle, followed by the addition of ice-cooled 0.25M sucrose/20 mM tris hydrochloride buffer (pH: 8.0) in an amount of 5 ml per g of the ventricle. The obtained mixture was mashed with a homogenizer in ice water for 30 minutes and centrifuged at 1,000 g for 10 min. The supernatant was further centrifuged at 105,000 g for 60 min. The centrifugation was conducted at 0° to 4° C. The obtained supernatant was used as such as the supernatant fraction for examination. The precipitate was suspended in the same buffer as that described above and used as the membrane fraction for examination. The protein concentrations of these fractions were each adjusted to 5 mg/ml as determined by Lowry method. […] The test tubes of the membrane fraction were kept at 37° C. for 30 minutes for incubation, while those of the supernatant fraction were kept at 37° C. for 5 minutes for incubation. Each incubation was stopped by the addition of 1 ml of Dole reagent. […] The amount of ^14 C was determined with a liquid scintillation counter. Mepacrine was selected as a comparative compound. (Results)

[2] = system: phospholipase A2 (PLA2) contained in the supernatant fraction of rabbit heart; assay: Inhibitory activity against phospholipase A2 (PLA2) contained in the supernatant fraction of rabbit heart; format: biochemical; details: EGTA added, 37° C., 5 minutes
Procedure: as §1

SMILES | PLA2 -inhibitory activity IC30, membrane fraction [1] [µM] | PLA2 -inhibitory activity IC30, supernatant fraction [2] [µM]
CN(C(=O)/C=C/c1ccc(S(C)(=O)=O)cc1)c1ccc(S(=O)(=O)NC2CCCCN(Cc3ccccc3)C2)cc1 (racemic) [Example 9, (±)-[1-benzyl-3-hexamethyleneimino]-4-{N-methyl N-[(E)-N-3-(4-methylsulfonylphenyl)-2-propenoyl]amino)benzenesulfonamide] | 0.015 | 61
CN(C(=O)/C=C/c1ccc(-n2ccnc2)cc1)c1ccc(S(=O)(=O)N[C@@H]2C[C@H]3CC[C@@H]2C3)cc1 (relative stereo) [Example 31, (±)-N-(exo-2-norbornyl)-4-{N-methyl-N-[(E)-3-[4-(1-imidazolyl)phenyl]-2-propenoyl]amino}benzenesulfonamide] | 0.42 | 29
CN(C(=O)/C=C/c1ccc(O)c(O)c1)c1ccc(S(=O)(=O)NC2Cc3ccccc3C2)cc1 [Example 2, N-(2-indanyl)-4-{N-methyl-N-[(E)-3-(3,4-dihydroxyphenyl)-2-propenoyl]amino}benzenesulfonamide] | 4.48 | 40
CN(C(=O)/C=C/c1ccc(OC(=O)CN)c(OC(=O)CN)c1)c1ccc(S(=O)(=O)NC2Cc3ccccc3C2)cc1 [Example 3, N-(2-indanyl)-4-{N-methyl-N-[(E)-3-[3,4-diglycyloxyphenyl)-2-propenoyl]amino}benzenesulfonamide] | 2.4 | 
CN(C(=O)/C=C/c1ccc(S(C)(=O)=O)cc1)c1ccc(S(=O)(=O)NC2CCN(CCc3ccccc3)CC2)cc1 [Example 5, N-[1-(2-phenylethyl)-4-piperidyl]-4-{N-methyl-N-[(E)-3-(4-methylsulfonylphenyl) -2-propenoyl]amino}benzenesulfonamide] | 0.007 | 49
CN(C(=O)/C=C/c1ccc(S(C)(=O)=O)cc1)c1ccc(S(=O)(=O)NC2CCCCCC2)cc1 [Example 14, N-pycloheptyl-4-(N-methyl-N-[(E)-3-(4-methylsulfonylphenyl)-2-propenoyl]amino}benzenesulfonamide] | 0.016 | > 30
CN(C(=O)/C=C/c1ccc(S(C)(=O)=O)cc1)c1ccc(S(=O)(=O)NCCc2ccccn2)cc1 [Example 18, N-[2-(2-pyridyl)ethyl]-4-{N-methyl-N-[(E)-3-(4-methylsulfonylphenyl) -2-propenoyl]amino}benzenesulfonamide] | 0.18 | > 100
CN(C(=O)/C=C/c1ccc(S(C)(=O)=O)cc1)c1ccc(S(=O)(=O)N2CCCN(CC3CCCCC3)CC2)cc1 [Example 20, (E)-N-methyl-N-[4-(4-cyclohexylmethyl-1-homopiperazinyl)sulfonylphenyl]-3 (4 methylsulfonylphenyl)-2-propenamide] | 0.045 | 92
CN(C(=O)/C=C/c1ccc(S(C)(=O)=O)cc1)c1ccc(S(=O)(=O)N2CCCN(Cc3ccccc3)CC2)cc1 [Example 21, (E)-N-methyl-N-[4-(4-benzyl-1-homopiperazinyl)sulfonylphenyl]-3-(4-methylsulfonylphenyl)-2-propenamide] | 0.055 | > 100
CN(C(=O)/C=C/c1ccc(S(C)(=O)=O)cc1)c1ccc(S(=O)(=O)N2CCN(CCc3ccccc3)CC2)cc1 [Example 22, (E)-N methyl-N-{4-[4-(2-phenylethyl)-piperazinyl]sulfonylphenyl}-3-(4-methylsulfonylphenyl)-2-propenamide] | 0.050 | > 100
CN(C(=O)/C=C/c1ccc(C#N)cc1)c1ccc(S(=O)(=O)NC2CCCCCC2)cc1 [Example 25, N-cycloheptyl-4-{N-methyl-N-[(E)-3-(4-cyanophenyl)-2-propenoyl]amino}benzenesulfonamide] | 0.16 | 68
CN(C(=O)/C=C/c1ccc(C#N)cc1)c1ccc(S(=O)(=O)NC2CCN(Cc3ccccc3)CC2)cc1 [Example 26, N-(1-benzyl-4-piperidyl)-4-{N-methyl-N-[(E)-3-(4-cyanophenyl)-2-propenoyl]amino}benzenesulfonamide] | 0.24 | 59
CN(C(=O)/C=C/c1ccc(-n2ccnc2)cc1)c1ccc(S(=O)(=O)NC2CCCCCC2)cc1 [Example 29] | 0.45 | 90
CN(C(=O)/C=C/c1ccc(-n2ccnc2)cc1)c1ccc(S(=O)(=O)NC2CCCCCCC2)cc1 [Example 30, N-cyclooctyl-4-{N-methyl-N-[(E)-3-[4-(1-imidazolyl)phenyl]-2-propenoyl]amino}benzenesulfonamide] | 0.66 | > 100

Results, then the compound that gave them:

PLA2 -inhibitory activity IC30, membrane fraction [1] [µM] | PLA2 -inhibitory activity IC30, supernatant fraction [2] [µM] | SMILES
0.12 | 29 | CN(C(=O)/C=C/c1ccc([N+](=O)[O-])cc1)c1ccc(S(=O)(=O)NC2CCCCCC2)cc1 [Example 38, N-cycloheptyl-4-{N-methyl-N-[(E)-3-(4-nitrophenyl)-2-propenoyl]amino}benzenesulfonamide]
0.98 | 46 | CN(C(=O)/C=C/c1ccc(O)cc1)c1ccc(S(=O)(=O)NC2Cc3ccccc3C2)cc1 [Example 41, N-(2-indanyl)-4-{N-methyl-N-[(E)-3-(4-dihydroxyphenyl)-2-propenoyl]amino}benzenesulfonamide]
3.49 | 62 | CN(C(=O)/C=C/c1ccc(O)c(F)c1)c1ccc(S(=O)(=O)NC2CCCCCC2)cc1 [Example 43]
5.1 | 39 | CN(C(=O)/C=C/C=C/c1cc(Br)c(O)c(Br)c1)c1ccc(S(=O)(=O)NC2CCCCCC2)cc1 [Example 44, N-cycloheptyl-4-{N-methyl-N-[(2E, 4E)-5-(3,5-dibromo-4-hydroxyphenyl) -2,4-pentadienoyl]amino}benzenesulfonamide]
1.7 | 32 | CN(C(=O)/C=C/C=C/c1ccc(O)c(O)c1)c1ccc(S(=O)(=O)NC2CCc3ccccc3C2)cc1 (stereo not shown) [Example 48]
1.8 | 56 | CN(C(=O)/C=C/c1ccc(O)c(O)c1)c1ccc(S(=O)(=O)NC2CCCCCC2)cc1 [Example 49, N-cycloheptyl-4-{N-methyl-N-[(E)-3-(3,4-dihydroxyphenyl)-2-propenoyl]amino}benzenesulfonamide]
1.05 | 38 | CN(C(=O)/C=C/C=C/c1ccc(O)c(O)c1)c1ccc(S(=O)(=O)NC2CCCCCC2)cc1 [Example 50, N-cycloheptyl-4-{N-methyl N-[(2E, 4E)-5-(3,4-dihydroxyphenyl)-2,4-pentadienoyl]amino}benzenesulfonamide]
1.5 | 64 | CN(C(=O)/C=C/c1ccc(O)c(O)c1)c1ccc(S(=O)(=O)NC2CCCCC2)cc1 [Example 58, N-cyclohexyl-4-{N-methyl-N-[(E)-3-(3,4-dihydroxyphenyl)-2-propenoyl]amino}benzenesulfonamide]
16 |  | CN(C(=O)/C=C/c1ccc(O)c(O)c1)c1ccc(S(N)(=O)=O)cc1 [Example 65, 4-{N-methyl-N-[(E)-3-(3,4-dihydroxyphenyl)-2-propenoyl]amino}benzenesulfonamide]
41 |  | COc1ccc(/C(=C/C(=O)Nc2ccc(S(N)(=O)=O)cc2)c2cccnc2)cc1OC [Example 72]
20 | > 100 | NS(=O)(=O)c1ccc(NC(=O)/C=C/c2ccc(O)c(O)c2)cc1 [Example 77]
0.03 | > 100 | COc1ccc(CCN2CCC(NS(=O)(=O)c3ccc(N(C)C(=O)/C=C/c4ccc(S(C)(=O)=O)cc4)cc3)CC2)cc1OC [Example 79]
0.044 | > 100 | Cc1cccc(CCN2CCC(NS(=O)(=O)c3ccc(N(C)C(=O)/C=C/c4ccc(S(C)(=O)=O)cc4)cc3)CC2)n1 [Example 81, N-[1-(2-(6-methyl-2-pyridyl)ethyl]-4-piperidyl-4-{N-methyl-N-(E)-3-(4-methylsulfonylphenyl)-2-propenoyl]amino}benzenesulfonamide]
2.1 |  | CN(C(=O)/C=C/c1ccc(O)c(F)c1)c1ccc(S(=O)(=O)NC2CCCCCCC2)cc1 [Example 87, N-cyclooctyl-4-{N-methyl-N-[(E)-3-(3-fluoro-4-hydroxyphenyl)-2-propenoyl]amino}benzenesulfonamide]
